One may read the IC50 as the concentration at which inhibition is half-maximal.

SMILES strings stand for the structures. Active and inactive are the calls of the source. No cut-off for these calls is given here.

Test [1] concerns MGC-803. The test can be described thus: Induction of apoptosis in human MGC-803 cells assessed as late apoptotic cells at 0.2 uM incubated for 24 hrs by propidium iodide and Annexin V/FITC staining based flow cytometry assay (reference value: 4.10%). Format: functional. On the technique in general: Flow cytometry measures light scatter and fluorescence of single cells or particles in a stream.

The subject of test [2] is MGC-803. The test can be described thus: Antiproliferative activity against human MGC-803 cells assessed as reduction in cell viability incubated for 72 hrs by MTT assay. It is filed as functional, cell-based. As to conditions: MGC-803, 72 h. In general terms: Tetrazolium assays rely on reduction of a dye to a coloured formazan, in cell work by metabolically active cells.

The subject of test [3] is RKO. The test can be described thus: Induction of apoptosis in human RKO cells assessed as late apoptotic cells at 0.2 uM incubated for 24 hrs by propidium iodide and Annexin V/FITC staining based flow cytometry assay (reference value: 0.50%). It is filed as functional.
Test [4] deals with RKO. The test can be described thus: Induction of apoptosis in human RKO cells assessed as early apoptotic cells at 0.2 uM incubated for 24 hrs by propidium iodide and Annexin V/FITC staining based flow cytometry assay (reference value: 0.16%). Format: functional.
A further test has as its system LoVo. Briefly: Antiproliferative activity against human LoVo cells assessed as reduction in cell viability incubated for 72 hrs by MTT assay. Format: functional, cell-based.
Test [5] relates to RKO. Briefly: Induction of morphological changes in human RKO cells at 0.2 uM incubated for 24 hrs by Giemsa staining based micrscopic analysis. It is filed as functional, cell-based.
In test [6] the test system is RKO. Briefly: Antiproliferative activity against human RKO cells assessed as reduction in cell viability incubated for 72 hrs by MTT assay. Format: functional, cell-based.
In test [7] the test system is MGC-803. Briefly: Induction of cell cycle arrest in human MGC-803 cells assessed as accumulation of cells at G2/M phase at 0.2 uM incubated for 24 hrs by propidium iodide staining based flow cytometry analysis. Format: functional.
For test [8], the system named is RKO. The test can be described thus: Induction of cell cycle arrest in human RKO cells assessed as accumulation of cells at G2/M phase at 0.2 uM incubated for 24 hrs by propidium iodide staining based flow cytometry analysis. Format: functional.
In another test the test system is SW480. The test can be described thus: Antiproliferative activity against human SW480 cells assessed as reduction in cell viability incubated for 72 hrs by MTT assay. Format: functional, cell-based. As to conditions: SW480, 72 h.
The next test concerns HGC-27. Briefly: Antiproliferative activity against human HGC-27 cells assessed as reduction in cell viability incubated for 72 hrs by MTT assay. Format: functional, cell-based. As to conditions: HGC-27, 72 h.
For test [9], the system named is RKO. Briefly: Induction of cell cycle arrest in human RKO cells assessed as accumulation of cells at S phase at 0.2 uM incubated for 24 hrs by propidium iodide staining based flow cytometry analysis. It is filed as functional.
For test [10], the target named is T1, DNA topoisomerase 1 (Homo sapiens) (UniProt P11387).
T1 sequence (whole entry): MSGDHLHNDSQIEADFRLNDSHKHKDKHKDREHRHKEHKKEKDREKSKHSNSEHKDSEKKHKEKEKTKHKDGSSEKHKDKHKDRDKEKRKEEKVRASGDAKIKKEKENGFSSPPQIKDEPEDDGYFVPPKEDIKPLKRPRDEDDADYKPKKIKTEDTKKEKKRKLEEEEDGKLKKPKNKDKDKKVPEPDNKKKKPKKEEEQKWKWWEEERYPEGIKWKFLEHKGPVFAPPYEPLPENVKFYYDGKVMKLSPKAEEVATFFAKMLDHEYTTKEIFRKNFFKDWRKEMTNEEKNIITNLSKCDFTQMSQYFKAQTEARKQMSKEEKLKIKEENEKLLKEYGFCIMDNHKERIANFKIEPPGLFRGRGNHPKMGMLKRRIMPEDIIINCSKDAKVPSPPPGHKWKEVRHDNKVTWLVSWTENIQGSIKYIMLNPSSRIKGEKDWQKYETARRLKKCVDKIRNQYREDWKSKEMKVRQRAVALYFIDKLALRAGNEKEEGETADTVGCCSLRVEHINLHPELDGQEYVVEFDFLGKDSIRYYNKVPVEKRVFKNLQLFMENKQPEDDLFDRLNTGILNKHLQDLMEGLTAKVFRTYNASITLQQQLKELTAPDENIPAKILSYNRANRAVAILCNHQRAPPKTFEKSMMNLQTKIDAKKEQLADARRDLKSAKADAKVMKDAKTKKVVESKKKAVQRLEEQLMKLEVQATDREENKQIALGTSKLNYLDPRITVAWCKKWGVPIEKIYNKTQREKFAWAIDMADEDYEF
Briefly: Inhibition of topoisomerase 1 (unknown origin) at 200 uM using PBR322 DNA as substrate incubated for 30 mins by agarose gel electrophoresis.

For another test, the system named is GES1. The test can be described thus: Antiproliferative activity against human GES1 cells assessed as reduction in cell viability incubated for 72 hrs by MTT assay. Format: functional, cell-based. As to conditions: GES1, 72 h.
In test [11] the test system is RKO. The test can be described thus: Inhibition of cell migration in human RKO cells assessed as reduction in tumor wound healing incubated for 24 hrs by microscopic analysis. It is filed as functional, cell-based. As to conditions: dose 10-90 nM.
Test [12] relates to MGC-803. Briefly: Inhibition of cell […] in human MGC-803 cells at 50 nM incubated for 24 hrs by scratch wound healing assay. It is filed as functional, cell-based.
In test [13] the test system is MGC-803. Briefly: Induction of morphological changes in human MGC-803 cells at 0.2 uM incubated for 24 hrs by Giemsa staining based micrscopic analysis. Format: functional, cell-based.
The subject of test [14] is MGC-803. Briefly: Induction of apoptosis in human MGC-803 cells assessed as early apoptotic cells at 0.2 uM incubated for 24 hrs by propidium iodide and Annexin V/FITC staining based flow cytometry assay (reference value: 1.85%). Format: functional.
For the next test, the system named is SGC-7901. The test can be described thus: Antiproliferative activity against human SGC-7901 cells assessed as reduction in cell viability incubated for 72 hrs by MTT assay. Format: functional, cell-based. As to conditions: SGC-7901, 72 h.
Test [15] deals with MGC-803. The test can be described thus: Induction of cell cycle arrest in human MGC-803 cells at 0.2 uM incubated for 24 hrs by propidium iodide staining based flow cytometry analysis. It is filed as functional.
Test [16] relates to RKO. The test can be described thus: Induction of cell cycle arrest in human RKO cells at 0.2 uM incubated for 24 hrs by propidium iodide staining based flow cytometry analysis. Format: functional.

On to `CC[C@@]1(O)C(=O)OCc2c1cc1n(c2=O)Cc2cc3c(CN(C)C)c(O)ccc3nc2-1` [TOPOTECAN], for which the Activity in the test with MGC-803 [1] is recorded as 3.67%; with RKO [3], 19.28%; with RKO [4], 14.2%; with MGC-803 [7], 82.29%; with RKO [8], 31.92%; in the test on RKO [9], 67.69%. The Activity with MGC-803 [14] was determined as 5.11%. Also, the half-inhibitory concentration (IC50) was found to be 420 nM in the test with MGC-803 [2]; 120 nM in the test on LoVo; 420 nM with RKO [6]; 90 nM with SW480; 490 nM with HGC-27; 1060 nM in the test on GES1. The IC50 with SGC-7901 worked out at 690 nM. The outcome in the test on RKO [5] and in the test on MGC-803 [13] was inactive. The inhibition entry in test [10] is “Active”. The inhibition entry in the test with RKO [11] and with MGC-803 [12] was “inactive” each time.
With `CN1c2ccccc2C(=O)N2CCc3c([nH]c4ccccc34)C21` (racemic), the Activity in the test with MGC-803 [1] was 5.24%; with RKO [3], 7.71%; in the test on RKO [4], 4.63%; in the test with MGC-803 [14], 3.15%. For the same compound, the IC50 in the test with MGC-803 [2] is 8520 nM; with LoVo it was 24200 nM; in the test with RKO [6] it was 29600 nM; in the test with SW480, over 30000 nM; with HGC-27, over 30000 nM; in the test on GES1 it was over 30000 nM. The IC50 in the test on SGC-7901 turned out to be 17700 nM. Also, the outcome in the test on MGC-803 [15], in the test on RKO [5], with RKO [16] and in the test on MGC-803 [13] was inactive. For the same compound, the inhibition result in [10] is “Active”. Further, the inhibition result in the test on RKO [11] and in the test on MGC-803 [12] was “inactive” each time.
